The text below walks through data of patent publication US10682409B2, “Therapeutic treatment” (priority 2012, dated 2020).

What all share (assay type): in vivo, human
Data set [1] is described as follows: Examples 3-11: weight and height (velocity, percentile curve, course) of ADHD Patients A-H. As to the method: In an embodiment, a therapeutically effective amount of a therapeutic compound disclosed herein increases the weight or height of an individual is determined by an increase in the individual's weight or height velocity as compared to an individual nor receiving a therapeutic compound for appetite reduction. In an embodiment, weight and/or height velocity can be calculated by taking measurements of height and/or weight of an individual over a period of time and measuring an increase or decrease in an individual's height and/or weight over the period of time. In an embodiment, weight velocity is calculated by taking three time points, time 0 upon initiation of medication to treat ADHD, time 1 addition of an appetite stimulant, time 2 the last data point after initiation of combination treatment. In an embodiment, a formula to calculate weight and height velocity for stimulant alone is (weightT1−weight T0)/days from Time 0 to time 1. In an embodiment, a formula to calculate weight velocity for combination treatment is (weightT2−weight T1)/days from time 1 to time 2. In an embodiment, to evaluate whether weight velocity increased after addition of an appetite stimulant, the weight velocity of time 0 to time 1 is compared to the weight velocity from time 1 to time 2. In an embodiment, height velocity is calculated by taking three time points, time 0 upon initiation of medication to treat ADHD, time 1 addition of an appetite stimulant, time 2 the last data point after initiation of combination treatment. The formula to calculate height velocity for stimulant alone is (weightT1−weight T0)/days from Time 0 to time 1. The formula to calculate height velocity for combination treatment is (weightT2−weight T1)/days from time 1 to time 2. In an embodiment, to evaluate whether height velocity increased after addition of an appetite stimulant, the height velocity of time 0 to time 1 is compared to the height velocity from time 1 to time 2.
Eight patients, identified as patients A-H, that came in suffering from ADHD were treated for ADHD. […] Each patient was then prescribed an appetite simulant to be taken along with the amphetamine or methylphenidate. The patients' weight, height and attentiveness were then followed during the course of treatment.
(§1) The age range of the patients was from 6-15 years of age, with a mean age at the start of treatment for ADHD of 8.4 years of age. The mean age at the start of the combination treatment wherein the patient was administered an amphetamine or methylphenidate and an appetite stimulant was 10.3 years of age. The mean treatment period for the eight patients was 1,108 days with a mean of 2.55 ADHD medication changes during the treatment period. Attentiveness in the eight patients was measured using CGI-S and CGI-I. Patients weight and height velocity were measured to identify a difference in weight and height gain prior to and after addition of an appetite stimulant to the treatment for ADHD. Weight velocity was calculated by taking three time points, time 0 upon initiation of medication to treat ADHD, time 1 addition of an appetite stimulant, time 2 the last data point after initiation of combination treatment. The formula to calculate weight velocity for stimulant alone is (weightT1−weight T0)/days from Time 0 to time 1. The formula to calculate weight velocity for combination treatment is (weightT2−weight T1)/days from time 1 to time 2.

The test system of data set [2] is patients suffering from ADHD. As to the kind of experiment: Clinical Global Impression-Severity scale (CGI-S), Patients A-H. As to the method: In an embodiment, attentiveness is measured using the Clinical Global Impression rating scales to measure symptom severity, treatment response and the efficacy of treatments in treatment studies of patients with mental disorders (Guy, W., 1976). In an embodiment, attentiveness is measure using the Clinical Global Impression-Severity scale (“CGI-S”). In an embodiment, CGI-S is a 7-point scale that requires the clinician to rate the severity of the patient's illness at the time of assessment, relative to the clinician's past experience with patients who have the same diagnosis. Considering total clinical experience, a patient is assessed on severity of mental illness at the time of rating 1, normal, not at all ill; 2, borderline mentally ill; 3, mildly ill; 4, moderately ill; 5, markedly ill; 6, severely ill; or 7, extremely ill. In an embodiment, attentiveness is measured using the Clinical Global Impression-Improvement scale (“CGI-I”). […] In an embodiment, attentiveness is measured using the Clinical Global Impression-Efficacy Index (“CGI-E”).
as §1

For data set [3], the system named is patient suffering from ADHD. As to the kind of experiment: Example 1: patient suffering from ADHD treated with and without an appetite stimulant (appetite, blood glucose, attentiveness by CGI-S and CGI-I). The source says:
A patient suffering from ADHD is prescribed and administered an amphetamine to treat ADHD. The patient takes the amphetamine once a day in the morning or afternoon. […] As a result, the glucose level measured in the blood increases as shown in FIG. 1 and the patient's attentiveness recovers as measured by CGI-S and CGI-I. By taking the appetite stimulant during the time when the patient was awake, the patient increased their caloric intake during times when the patient needed to maintain their attentiveness in order to have reasonable cognition and/or social behaviour.

Data set [4] can be described thus: Example 2 case study: child with ADHD on methylphenidate, then Periactin (height, weight, percentiles, attentiveness). The settings on record: for height percentile compared to girls their age / weight percentile compared to girls their age / weight: methylphenidate. The source says:
Case study: A child was presented by their parents for symptoms of attention deficit hyperactivity disorder. Their size at evaluation was 4′1¾″ and 50 lbs, corresponding to the 81st and 50th percentiles when compared to girls their age. […] At three months following the initiation of treatment for ADHD, the child was 4′2⅞″ and 50½ lbs, corresponding to the 85th and 34rd percentiles when compared to girls their age. At one year, they were 4′4⅜″ and 53 lbs, corresponding to the 84th and 36th percentiles when compared to girls their age. At two years they were 4′5¾″ and 54 lbs, corresponding to the 72nd and 17th percentiles when compared to girls their age. At four years of treatment they were 4′7⅜″ and 59 lbs, corresponding to 70th and 14th percentiles when compared to girls their age. At five years of treatment they were 4′9⅞″ and 64½ lbs, corresponding to 59th and 7th percentiles when compared to girls their age.
The child was then prescribed Periactin at a dosage of 2 mg b.i.d. to attempt to stimulate appetite. The dose was taken in the morning and then in the afternoon. After one year they were 4′11½″ and 72½ lbs, corresponding to 33rd and 5th percentiles when compared to girls their age. The child was then prescribed Periactin at a dose of 4 mg b.i.d. After two months on this dose, they were 5′¼″ and 76 lbs, corresponding to 37th and 8th percentiles when compared to girls their age. At 8 months on this dose, they were 5′½″ and 80 lbs, corresponding to 41st and 8th percentiles when compared to girls their age. At one year on this dose, they were 5′2¾″ and 89½ lbs, corresponding to 51st and 17th percentiles when compared to girls their age. At 18 months on this dose, they were 5′3⅝″ and 99½ lbs, corresponding to 56th and 30th percentiles when compared to girls their age. Additionally, the attentiveness of the child increase following the prescription of Periactin as they increased their food intake during the day.

Setting [5] is: Patient E, Concerta 27 mg then Focalin XR 10-15 mg alone, FIG. 12.
Setting [6] is: various forms of methylphenidate.

For `COC(=O)C(c1ccccc1)C1CCCCN1` (centres unmarked) [Concerta, methylphenidate], the weight course result in data set [1] (Patient A, Concerta 18 mg alone, from about day 371, FIG. 4) is reported as “began to lose weight again”; in data set [1] (Patient C, Concerta 36 mg alone, FIG. 8), “little weight gain followed by weight loss”; in data set [1] (setting [5]), “did not increase substantively”. Also, the CGI-S score is 4 in data set [2] (Patient A, Concerta 18 mg alone, constant for almost 400 days, FIG. 5); 5 in data set [2] (Patient C, Concerta 36 mg alone, FIG. 9); 6 in data set [2] (Patient D, Concerta 18 mg before combination, FIG. 11).

In the case of `COC(=O)C(c1ccccc1)C1CCCCN1` (centres unmarked) [Daytrana patch, methylphenidate], in data set [2] (Patient F, Daytrana patch 15 mg (day 469), 20 mg (day 606), FIG. 15), the CGI-S score stood at 5.

With `COC(=O)[C@H](c1ccccc1)[C@H]1CCCCN1` [Focalin XR, dexmethylphenidate], the weight course result in data set [1] (Patient B, Focalin XR 10 mg then 15 mg alone, FIG. 6) was “slow and then became slightly erratic”; in data set [1] (setting [5]), “did not increase substantively”. In addition, the CGI-S score was 6 in data set [2] (Patient E, Focalin XR 10 mg (before dose increase), FIG. 13); 5 in data set [2] (Patient E, Focalin XR 15 mg from day 162, FIG. 13); 4 in data set [2] (Patient G, Focalin XR 15 mg alone (dropped from 5), FIG. 17).

`COC(=O)C(c1ccccc1)C1CCCCN1` (centres unmarked) [Ritalin LA, methylphenidate]: in data set [1] (Patient F, Ritalin LA with Focalin, then Daytrana patch, without Periactin, FIG. 14), the weight course result is given as “did not increase substantively”. The CGI-S score in data set [2] (Patient F, Ritalin LA 20 mg and Focalin 5 mg, FIG. 15) worked out at 7; in data set [2] (Patient F, Ritalin LA 30 mg and Focalin 5 mg from day 46, FIG. 15) it was 6.

On to `C[C@@H](Cc1ccccc1)NC(=O)[C@@H](N)CCCCN` [Vvyanase, lisdexamfetamine], for which, in data set [1] (Patient H, Vvyanase 40 mg alone, FIG. 18), the weight course result is “little weight gain”. Moreover, the CGI-S score in data set [2] (Patient H, Vvyanase 40 mg alone (dropped from 6), FIG. 19) came to 5.

On to `CC(N)Cc1ccccc1` (centres unmarked) [amphetamine], for which the “attentiveness as measured by CGI-S and CGI-I” value in data set [3] (amphetamine once a day alone) is on record as “lack of attentiveness”. Besides, the “glucose level measured in the blood” value in data set [3] (amphetamine once a day alone, FIG. 1) is recorded as “drops”. Besides, the appetite entry in data set [3] (amphetamine once a day in the morning or afternoon, alone) was “loss of appetite”.

As for `COC(=O)C(c1ccccc1)C1CCCCN1` (centres unmarked) [methylphenidate], the “height percentile compared to girls their age” value turned out to be 59 percentile in data set [4] (five years); 70 percentile in data set [4] (four years); 84 percentile in data set [4] (one year); 85 percentile in data set [4] (three months); 72 percentile in data set [4] (two years). Moreover, the “weight percentile compared to girls their age” value in data set [4] (five years) is 7 percentile; in data set [4] (four years), 14 percentile; in data set [4] (one year) it was 36 percentile; in data set [4] (three months), 34 percentile; in data set [4] (two years) it was 17 percentile. The weight in data set [4] (four years of treatment) came out at 59 lbs; in data set [4] (one year) it was 53 lbs; in data set [4] (two years) it was 54 lbs. The “response of ADHD to treatment” value in data set [4] (setting [6]) is listed as “responded well”. Besides, the side-effect entry in data set [4] (setting [6]) is “suppression of appetite and a lack of significant weight gain”.
